Laboratory results from patent US20230225984A1, “MONO- AND BIS-NITROSYLATED ALKYL POLYOLS FOR THERAPEUTIC USE” (priority 2020, published 2023).

Experiment: Stability of non-aqueous mixtures of 1-(nitrosooxy)-propan-2-ol and 2-(nitrosooxy)-propan-1-ol in 1,2-propanediol, GC analysis
Format: physicochemical
Description: Three different concentrations of 1-(nitrosooxy)-propan-2-ol and 2-(nitrosooxy)-propan-1-ol in 1,2-propanediol were prepared and stored in both a refrigerator (5° C.) and freezer (−20° C.). Aliquots of each solution were taken periodically and analysed by GC to determine the concentration of 1-(nitrosooxy)-propan-2-ol and 2-(nitrosooxy)-propan-1-ol.
The results of the GC analysis are shown in the table below (column: Rxi-5Sil MS, 20 m×0.18 mm, […]; carrier: He; Inlet: 250° C., split ratio 100:1; constant flow: 1.0 mL/min; oven temperature profile: 40° C. (3 min), 10° C./min, 80° C. (0 min), 30° C./min, 250° C. (3 min); FID: 300° C., H2 flow 30 mL/min, air flow 400 mL/min, make-up flow (N2) 25 mL/min; internal standard: 1,1,1,3,5,5,5-heptamethyl trisiloxane): […]

[1] = Freezer (−20° C.), 10 days, Low conc. sample in 1,2-propanediol
[2] = Freezer (−20° C.), 10 days, Medium conc. sample in 1,2-propanediol
[3] = Freezer (−20° C.), 14 days, High conc. sample in 1,2-propanediol
[4] = Freezer (−20° C.), 27 days, Low conc. sample in 1,2-propanediol
[5] = Freezer (−20° C.), 27 days, Medium conc. sample in 1,2-propanediol
[6] = Freezer (−20° C.), 28 days, High conc. sample in 1,2-propanediol
[7] = Freezer (−20° C.), 56 days, High conc. sample in 1,2-propanediol
[8] = Freezer (−20° C.), 64 days, Low conc. sample in 1,2-propanediol
[9] = Freezer (−20° C.), 64 days, Medium conc. sample in 1,2-propanediol
[10] = Freezer (−20° C.), 84 days, High conc. sample in 1,2-propanediol
[11] = Freezer (−20° C.), 84 days, Low conc. sample in 1,2-propanediol
[12] = Freezer (−20° C.), 84 days, Medium conc. sample in 1,2-propanediol
[13] = Freezer (−20° C.), Start, High conc. sample in 1,2-propanediol
[14] = Freezer (−20° C.), Start, Low conc. sample in 1,2-propanediol
[15] = Freezer (−20° C.), Start, Medium conc. sample in 1,2-propanediol
[16] = Refrigerator (5° C.), 10 days, Low conc. sample in 1,2-propanediol
[17] = Refrigerator (5° C.), 10 days, Medium conc. sample in 1,2-propanediol
[18] = Refrigerator (5° C.), 14 days, High conc. sample in 1,2-propanediol
[19] = Refrigerator (5° C.), 27 days, Low conc. sample in 1,2-propanediol
[20] = Refrigerator (5° C.), 27 days, Medium conc. sample in 1,2-propanediol
[21] = Refrigerator (5° C.), 28 days, High conc. sample in 1,2-propanediol
[22] = Refrigerator (5° C.), 56 days, High conc. sample in 1,2-propanediol
[23] = Refrigerator (5° C.), 64 days, Low conc. sample in 1,2-propanediol
[24] = Refrigerator (5° C.), 64 days, Medium conc. sample in 1,2-propanediol
[25] = Refrigerator (5° C.), 84 days, High conc. sample in 1,2-propanediol
[26] = Refrigerator (5° C.), 84 days, Low conc. sample in 1,2-propanediol
[27] = Refrigerator (5° C.), 84 days, Medium conc. sample in 1,2-propanediol
[28] = Refrigerator (5° C.), Start, High conc. sample in 1,2-propanediol
[29] = Refrigerator (5° C.), Start, Low conc. sample in 1,2-propanediol
[30] = Refrigerator (5° C.), Start, Medium conc. sample in 1,2-propanediol

CC(O)CON=O (stereo not drawn) [1-Nitrite, 1-(nitrosooxy)-propan-2-ol]
Concentration (% w/w) [1]: 0.08 % w/w | Concentration (% w/w) [2]: 0.81 % w/w | Concentration (% w/w) [3]: 3.76 % w/w | Concentration (% w/w) [4]: 0.07 % w/w | Concentration (% w/w) [5]: 0.74 % w/w | Concentration (% w/w) [6]: 3.72 % w/w | Concentration (% w/w) [7]: 3.55 % w/w | Concentration (% w/w) [8]: 0.07 % w/w | Concentration (% w/w) [9]: 0.74 % w/w | Concentration (% w/w) [10]: 3.50 % w/w | Concentration (% w/w) [11]: 0.08 % w/w | Concentration (% w/w) [12]: 0.78 % w/w | Concentration (% w/w) [13]: 3.75 % w/w | Concentration (% w/w) [14]: 0.08 % w/w | Concentration (% w/w) [15]: 0.81 % w/w | Concentration (% w/w) [16]: 0.08 % w/w | Concentration (% w/w) [17]: 0.86 % w/w | Concentration (% w/w) [18]: 3.72 % w/w | Concentration (% w/w) [19]: 0.09 % w/w | Concentration (% w/w) [20]: 0.81 % w/w | Concentration (% w/w) [21]: 3.67 % w/w | Concentration (% w/w) [22]: 3.47 % w/w | Concentration (% w/w) [23]: 0.07 % w/w | Concentration (% w/w) [24]: 0.73 % w/w | Concentration (% w/w) [25]: 3.33 % w/w | Concentration (% w/w) [26]: 0.07 % w/w | Concentration (% w/w) [27]: 0.77 % w/w | Concentration (% w/w) [28]: 3.75 % w/w | Concentration (% w/w) [29]: 0.08 % w/w | Concentration (% w/w) [30]: 0.81 % w/w

CC(CO)ON=O (stereo not drawn) [2-Nitrite, 2-(nitrosooxy)-propan-1-ol]
Concentration (% w/w) [1]: 0.06 % w/w | Concentration (% w/w) [2]: 0.63 % w/w | Concentration (% w/w) [3]: 2.89 % w/w | Concentration (% w/w) [4]: 0.06 % w/w | Concentration (% w/w) [5]: 0.57 % w/w | Concentration (% w/w) [6]: 2.93 % w/w | Concentration (% w/w) [7]: 2.74 % w/w | Concentration (% w/w) [8]: 0.06 % w/w | Concentration (% w/w) [9]: 0.58 % w/w | Concentration (% w/w) [10]: 2.71 % w/w | Concentration (% w/w) [11]: 0.06 % w/w | Concentration (% w/w) [12]: 0.62 % w/w | Concentration (% w/w) [13]: 2.94 % w/w | Concentration (% w/w) [14]: 0.06 % w/w | Concentration (% w/w) [15]: 0.61 % w/w | Concentration (% w/w) [16]: 0.06 % w/w | Concentration (% w/w) [17]: 0.67 % w/w | Concentration (% w/w) [18]: 2.91 % w/w | Concentration (% w/w) [19]: 0.07 % w/w | Concentration (% w/w) [20]: 0.63 % w/w | Concentration (% w/w) [21]: 2.90 % w/w | Concentration (% w/w) [22]: 2.69 % w/w | Concentration (% w/w) [23]: 0.06 % w/w | Concentration (% w/w) [24]: 0.57 % w/w | Concentration (% w/w) [25]: 2.59 % w/w | Concentration (% w/w) [26]: 0.06 % w/w | Concentration (% w/w) [27]: 0.60 % w/w | Concentration (% w/w) [28]: 2.94 % w/w | Concentration (% w/w) [29]: 0.06 % w/w | Concentration (% w/w) [30]: 0.61 % w/w
